The record followed here is ChEMBL document CHEMBL2046442, “Rationally designing safer anilines: the challenging case of 4-aminobiphenyls” (J Med Chem, 2012).

Holding throughout (format): toxicity, organism-based
Holding throughout (settings): salmonella enterica subsp. enterica serovar typhimurium

For data set [1], the system named is Salmonella typhimurium. Briefly: Induction of mutagenesis in Salmonella typhimurium TA98 at 160 ug/plate by Ames test in presence of rat liver S9 fraction relative to control.
For data set [2], the system named is Salmonella typhimurium. Briefly: Induction of mutagenesis in Salmonella typhimurium TA98 up to 5000 ug/plate by Ames test. (The Ames test uses bacterial strains that need an amino acid and regain growth without it when mutated back.)
For data set [3], the system named is Salmonella typhimurium. Briefly: Induction of mutagenesis in Salmonella typhimurium TA100 up to 5000 ug/plate by Ames test.
Data set [4] has as its system Salmonella typhimurium. Briefly: Induction of mutagenesis in Salmonella typhimurium TA100 at 500 ug/plate by Ames test in presence of rat liver S9 fraction relative to control.
Data set [5] has as its system Salmonella typhimurium. Briefly: Induction of mutagenesis in Salmonella typhimurium TA98 at 1600 ug/plate by Ames test in presence of rat liver S9 fraction relative to control.
In data set [6] the test system is Salmonella typhimurium. Put plainly: Induction of mutagenesis in Salmonella typhimurium TA100 up to 5000 ug/plate by Ames test in presence of rat liver S9 fraction.
The subject of data set [7] is Salmonella typhimurium. Briefly: Induction of mutagenesis in Salmonella typhimurium TA100 at 160 ug/plate by Ames test in presence of rat liver S9 fraction relative to control.
For data set [8], the system named is Salmonella typhimurium. Put plainly: Induction of mutagenesis in Salmonella typhimurium TA98 up to 5000 ug/plate by Ames test in presence of rat liver S9 fraction.
The subject of data set [9] is Salmonella typhimurium. Briefly: Induction of mutagenesis in Salmonella typhimurium TA100 at 50 ug/plate by Ames test in presence of rat liver S9 fraction relative to control.
The subject of data set [10] is Salmonella typhimurium. Put plainly: Induction of mutagenesis in Salmonella typhimurium TA98 at 50 ug/plate by Ames test in presence of rat liver S9 fraction relative to control.
For data set [11], the system named is Salmonella typhimurium. Briefly: Induction of mutagenesis in Salmonella typhimurium TA100 at 16 ug/plate by Ames test in presence of rat liver S9 fraction relative to control.
Data set [12] has as its system Salmonella typhimurium. Briefly: Induction of mutagenesis in Salmonella typhimurium TA98 at 500 ug/plate by Ames test in presence of rat liver S9 fraction relative to control.

Turning to `Nc1ccc(-c2ccc(Cl)cc2)cc1`, the “fold change (FC)” value is 54 with Salmonella typhimurium [1] and 14 in the data set with Salmonella typhimurium [4]. Moreover, the Activity result in the data set with Salmonella typhimurium [2] and in the data set on Salmonella typhimurium [3] was “Non-toxic” throughout.

On to `CS(=O)(=O)NCc1ccc(-c2ccc(N)cc2F)c(Cl)c1`, for which the “fold change (FC)” value with Salmonella typhimurium [5] is 3. For the same molecule, the Activity result in the data set on Salmonella typhimurium [2], in the data set with Salmonella typhimurium [3] and in the data set with Salmonella typhimurium [6] was “Non-toxic” throughout.

Take `Nc1ccc(-c2ccccc2)c(F)c1`: the figures for the “fold change (FC)” value in the data set on Salmonella typhimurium [1] and with Salmonella typhimurium [7] were 2 and 3, respectively. Besides, the Activity entry in the data set with Salmonella typhimurium [2] and in the data set with Salmonella typhimurium [3] was “Non-toxic” throughout.

Consider `Nc1ccc(-c2c(F)cccc2Cl)c(F)c1`, for which the Activity result in the data set on Salmonella typhimurium [2], in the data set with Salmonella typhimurium [8], with Salmonella typhimurium [3] and in the data set on Salmonella typhimurium [6] was “Non-toxic” each time.

Regarding `N#Cc1ccc(-c2ccc(N)cc2F)c(Cl)c1`, the Activity result in the data set with Salmonella typhimurium [2], in the data set on Salmonella typhimurium [8], in the data set with Salmonella typhimurium [3] and with Salmonella typhimurium [6] was “Non-toxic” throughout.

Take `N#Cc1cc(N)ccc1-c1ccccc1Cl`: the Activity entry with Salmonella typhimurium [2], in the data set with Salmonella typhimurium [8], in the data set with Salmonella typhimurium [3] and in the data set on Salmonella typhimurium [6] was “Non-toxic” in each case.

For `Nc1ccc(-c2c(F)cccc2F)c(F)c1`, the Activity entry in the data set with Salmonella typhimurium [2], in the data set on Salmonella typhimurium [8], with Salmonella typhimurium [3] and with Salmonella typhimurium [6] was “Non-toxic” in each case.

On to `N#Cc1cc(Cl)ccc1-c1ccc(N)cc1F`, for which the Activity entry in the data set on Salmonella typhimurium [2], in the data set with Salmonella typhimurium [8], with Salmonella typhimurium [3] and in the data set with Salmonella typhimurium [6] was “Non-toxic” throughout.

Take `Nc1ccc(-c2cccc(Cl)c2)cc1`: the “fold change (FC)” value with Salmonella typhimurium [1] was determined as 47; in the data set on Salmonella typhimurium [9] it was 12. Moreover, the Activity result with Salmonella typhimurium [2] and in the data set with Salmonella typhimurium [3] was “Non-toxic” throughout.

As to `Nc1ccc(-c2ccc(F)cc2)cc1`, the “fold change (FC)” value with Salmonella typhimurium [1] is reported as 43; in the data set with Salmonella typhimurium [7], 21. In addition, the Activity result in the data set on Salmonella typhimurium [2] and in the data set on Salmonella typhimurium [3] was “Non-toxic” in each case.

For the molecule `Nc1ccc(-c2ccccc2)cc1F`, the entries for the “fold change (FC)” value in the data set with Salmonella typhimurium [10] and in the data set on Salmonella typhimurium [11] were 54 and 27, respectively. Besides, the Activity entry with Salmonella typhimurium [2] and in the data set with Salmonella typhimurium [3] was “Non-toxic” in each case.

Regarding `Nc1ccc(-c2ccccc2Cl)cc1`, the “fold change (FC)” value with Salmonella typhimurium [1] is given as 11; in the data set with Salmonella typhimurium [7] it was 5. Also, the Activity result in the data set on Salmonella typhimurium [2] and in the data set on Salmonella typhimurium [3] was “Non-toxic” throughout.

For the molecule `Nc1ccc(-c2ccccc2)c(Cl)c1`, the Activity result in the data set on Salmonella typhimurium [2], with Salmonella typhimurium [8], with Salmonella typhimurium [3] and in the data set with Salmonella typhimurium [6] was “Non-toxic” each time.

As for `Nc1ccc(-c2cccc(F)c2)cc1`, the “fold change (FC)” value with Salmonella typhimurium [1] is recorded as 38; in the data set with Salmonella typhimurium [7], 13. Further, the Activity entry with Salmonella typhimurium [2] and in the data set on Salmonella typhimurium [3] was “Non-toxic” throughout.

On to `Nc1ccc(-c2ccccc2)cc1Cl`, for which the results for the “fold change (FC)” value in the data set with Salmonella typhimurium [10] and in the data set on Salmonella typhimurium [9] were 54 and 37, respectively. Besides, the Activity result in the data set with Salmonella typhimurium [2] and with Salmonella typhimurium [3] was “Non-toxic” throughout.

Take `Nc1ccc(-c2ccccc2Cl)c(F)c1`: the Activity entry in the data set on Salmonella typhimurium [2], with Salmonella typhimurium [8], in the data set on Salmonella typhimurium [3] and in the data set on Salmonella typhimurium [6] was “Non-toxic” each time.

Turning to `Nc1ccc(-c2ccc(F)cc2F)c(F)c1`, the Activity result with Salmonella typhimurium [2], with Salmonella typhimurium [8], in the data set with Salmonella typhimurium [3] and with Salmonella typhimurium [6] was “Non-toxic” throughout.

For `Nc1ccc(-c2c(F)cccc2F)cc1`, the Activity entry with Salmonella typhimurium [2] and in the data set with Salmonella typhimurium [3] was “Non-toxic” in each case. Also, the “fold change (FC)” value in the data set with Salmonella typhimurium [7] stood at 3; with Salmonella typhimurium [12], 7.

For the molecule `Nc1ccc(-c2ccccc2F)c(F)c1`, the Activity entry in the data set on Salmonella typhimurium [2], in the data set with Salmonella typhimurium [8], in the data set on Salmonella typhimurium [3] and in the data set on Salmonella typhimurium [6] was “Non-toxic” each time.

Regarding `Nc1ccc(-c2ccccc2F)cc1`, the “fold change (FC)” value in the data set with Salmonella typhimurium [1] turned out to be 26; with Salmonella typhimurium [7] it was 10. Besides, the Activity entry with Salmonella typhimurium [2] and with Salmonella typhimurium [3] was “Non-toxic” in each case.
